From patent US4764358A, “Radiolabeled dimethyl branched long chain fatty acid for heart imaging” (The United States of America as represented by the United …, priority 1986, dated 1988)
Read-outs that look alike come from different tables or passages of the source. One block for each compound: values may come before it.

How the values were obtained:
[1] = Triple-label experiment, (123I)DMIPP/(131I)BMIPP/(125I)IPP mixture in fasted rats; type: in vivo, fasted female Fischer rats; conditions: for initial uptake or "extraction" phase (myocardial): DMIPP, BMIPP and IPP compared
Text: Nevertheless, in the present experiment, the mass of each fatty acid injected was very similar to eliminate any effects of possible synergistic action on myocardial uptake.

[2] = Effect of relative BMIPP/IPP mass ratios on biodistribution properties in rats; type: in vivo; conditions: ratios of up to 6:1
Text: Nevertheless, in the present experiment, the mass of each fatty acid injected was very similar to eliminate any effects of possible synergistic action on myocardial uptake. […] Within a few minutes following injection, however, differences in retention are clearly evident in fasted animals.

[3] = Myocardial uptake/retention and heart:blood ratio, DMIPP compared with monomethyl BMIPP and IPP; conditions: after 60 min
Experimental: (§4) Iodine-125 DMIPP was administered in 6% BSA solution to groups of fasted and fed rats. The animals were killed at time periods varying from 5 min to 8 h and selected tissues and aliquots of blood removed and analyzed in a gamma spectrometer.

[4] = rat, in vivo
Experimental: as §4

in vivo = assay: in vivo; set-up: species or system female Fischer rats; conditions: rat, iv; for tissue uptake at 5 min / tissue uptake at 0.5 h / tissue uptake at 1 h / tissue uptake at 2 h / tissue uptake at 4 h / tissue uptake at 8 h: distribution of radioactivity
Experimental: (§1) DISTRIBUTION OF RADIOACTIVITY
(% INJECTED DOSE/GRAM OF TISSUE) IN FASTED
(§2) RATS AT VARIOUS TIMES AFTER INTRAVENOUS ADMINISTRATION OF
(§3) 15-(p-[^125 I]IODOPHENYL)-3,3-DIMETHYLPENTADECANOIC ACID (DMIPP)
Mean and range values for five (5, 30 and 60 min) or four (2, 4 and 8 h)
female Fischer rats. Other tissues that were analyzed include spleen,
as §1
(% INJECTED DOSE/ORGAN OF TISSUE) IN FASTED
as §2, §3
Time after injection; Percent injected dose/organ (range)

[5] = Myocardial retention after intravenous administration to unfasted rats; type: in vivo; conditions: first couple of hours after intravenous administration
Text: Dimethyl branching was placed at the beta carbon to compare it with the monomethyl branched analogue and because of ease of synthesis. It is believed that dimethyl branching at the alpha carbon would give similar results.

Compound: O=C(O)CCCCCCCCCCCCCCc1ccc([125I])cc1 [IPP, reference compound]
initial uptake or "extraction" phase (myocardial) [1]: very similar for these three agents
effect of relative BMIPP/IPP mass ratios on biodistribution properties [2]: insignificant effect

Compound: CC(CCCCCCCCCCCCc1ccc([123I])cc1)CC(=O)O (stereo not drawn) [BMIPP]
initial uptake or "extraction" phase (myocardial) [1]: very similar for these three agents
loss (washout) from heart [3]: approximately 40%
effect of relative BMIPP/IPP mass ratios on biodistribution properties [2]: insignificant effect

heart-to-blood ratio [4]: 10/1
heart:blood ratios, in words [4]: much higher heart:blood ratios
loss (washout) from heart [4]: approximately 24%
myocardial uptake [4]: high myocardial uptake
retention in the heart [4]: prolonged retention
t1/2 (heart retention) [4]: 12 h
time it remained measurable (in the heart) [4]: up to 12 hours
mean heart:blood ratios ([4]; 15 min): greater than 10:1
initial uptake or "extraction" phase (myocardial) [1]: very similar for these three agents
Blood, distribution of radioactivity (in vivo; 5 min): 8.47 % injected dose/organ
Heart, distribution of radioactivity (in vivo; 5 min): 1.95 % injected dose/organ
Kidneys, distribution of radioactivity (in vivo; 5 min): 1.45 % injected dose/organ
Liver, distribution of radioactivity (in vivo; 5 min): 30.9 % injected dose/organ
Lungs, distribution of radioactivity (in vivo; 5 min): 1.63 % injected dose/organ
Mean Heart:Blood (in vivo; 5 min): 3:1
Thyroid, distribution of radioactivity (in vivo; 5 min): 0.14 % injected dose/organ
Blood, distribution of radioactivity (in vivo; 30 min): 2.30 % injected dose/organ
Heart, distribution of radioactivity (in vivo; 30 min): 2.09 % injected dose/organ
Kidneys, distribution of radioactivity (in vivo; 30 min): 1.49 % injected dose/organ
Liver, distribution of radioactivity (in vivo; 30 min): 28.8 % injected dose/organ
Lungs, distribution of radioactivity (in vivo; 30 min): 0.99 % injected dose/organ
Mean Heart:Blood (in vivo; 30 min): 12:1
Thyroid, distribution of radioactivity (in vivo; 30 min): 0.15 % injected dose/organ
Blood, distribution of radioactivity (in vivo; 60 min): 2.41 % injected dose/organ
Heart, distribution of radioactivity (in vivo; 60 min): 2.24 % injected dose/organ
Kidneys, distribution of radioactivity (in vivo; 60 min): 1.51 % injected dose/organ
Liver, distribution of radioactivity (in vivo; 60 min): 32.4 % injected dose/organ
Lungs, distribution of radioactivity (in vivo; 60 min): 0.98 % injected dose/organ
Mean Heart:Blood (in vivo; 60 min): 12.5:1
Thyroid, distribution of radioactivity (in vivo; 60 min): 0.11 % injected dose/organ
Blood, distribution of radioactivity (in vivo; 120 min): 2.24 % injected dose/organ
Heart, distribution of radioactivity (in vivo; 120 min): 1.99 % injected dose/organ
Kidneys, distribution of radioactivity (in vivo; 120 min): 1.62 % injected dose/organ
Liver, distribution of radioactivity (in vivo; 120 min): 22.8 % injected dose/organ
Lungs, distribution of radioactivity (in vivo; 120 min): 0.87 % injected dose/organ
Mean Heart:Blood (in vivo; 120 min): 12.6:1
Thyroid, distribution of radioactivity (in vivo; 120 min): 0.17 % injected dose/organ
Blood, distribution of radioactivity (in vivo; 240 min): 2.04 % injected dose/organ
Heart, distribution of radioactivity (in vivo; 240 min): 1.56 % injected dose/organ
Kidneys, distribution of radioactivity (in vivo; 240 min): 1.58 % injected dose/organ
Liver, distribution of radioactivity (in vivo; 240 min): 16.7 % injected dose/organ
Lungs, distribution of radioactivity (in vivo; 240 min): 1.77 % injected dose/organ
Mean Heart:Blood (in vivo; 240 min): 11.2:1
Thyroid, distribution of radioactivity (in vivo; 240 min): 0.22 % injected dose/organ
Blood, distribution of radioactivity (in vivo; 480 min): 1.59 % injected dose/organ
Heart, distribution of radioactivity (in vivo; 480 min): 1.05 % injected dose/organ
Kidneys, distribution of radioactivity (in vivo; 480 min): 1.34 % injected dose/organ
Liver, distribution of radioactivity (in vivo; 480 min): 11.4 % injected dose/organ
Lungs, distribution of radioactivity (in vivo; 480 min): 0.66 % injected dose/organ
Mean Heart:Blood (in vivo; 480 min): 9.3:1
Thyroid, distribution of radioactivity (in vivo; 480 min): 0.28 % injected dose/organ
tissue uptake at 5 min (in vivo; Blood): 1.48 %ID/g
tissue uptake at 0.5 h (in vivo; Blood): 0.42 %ID/g
tissue uptake at 1 h (in vivo; Blood): 0.36 %ID/g
tissue uptake at 2 h (in vivo; Blood): 0.35 %ID/g
tissue uptake at 4 h (in vivo; Blood): 0.31 %ID/g
tissue uptake at 8 h (in vivo; Blood): 0.24 %ID/g
tissue uptake at 5 min (in vivo; Heart): 4.67 %ID/g
tissue uptake at 0.5 h (in vivo; Heart): 5.06 %ID/g
tissue uptake at 1 h (in vivo; Heart): 4.49 %ID/g
tissue uptake at 2 h (in vivo; Heart): 4.37 %ID/g
tissue uptake at 4 h (in vivo; Heart): 3.53 %ID/g
tissue uptake at 8 h (in vivo; Heart): 2.24 %ID/g
tissue uptake at 5 min (in vivo; Kidneys): 1.39 %ID/g
tissue uptake at 0.5 h (in vivo; Kidneys): 1.47 %ID/g
tissue uptake at 1 h (in vivo; Kidneys): 1.46 %ID/g
tissue uptake at 2 h (in vivo; Kidneys): 1.41 %ID/g
tissue uptake at 4 h (in vivo; Kidneys): 1.39 %ID/g
tissue uptake at 8 h (in vivo; Kidneys): 1.19 %ID/g
tissue uptake at 5 min (in vivo; Liver): 7.73 %ID/g
tissue uptake at 0.5 h (in vivo; Liver): 7.3 %ID/g
tissue uptake at 1 h (in vivo; Liver): 6.02 %ID/g
tissue uptake at 2 h (in vivo; Liver): 5.32 %ID/g
tissue uptake at 4 h (in vivo; Liver): 3.56 %ID/g
tissue uptake at 8 h (in vivo; Liver): 2.52 %ID/g
tissue uptake at 5 min (in vivo; Lungs): 2.15 %ID/g
tissue uptake at 0.5 h (in vivo; Lungs): 1.42 %ID/g
tissue uptake at 1 h (in vivo; Lungs): 1.17 %ID/g
tissue uptake at 2 h (in vivo; Lungs): 1.12 %ID/g
tissue uptake at 4 h (in vivo; Lungs): 0.97 %ID/g
tissue uptake at 8 h (in vivo; Lungs): 0.79 %ID/g
tissue uptake at 5 min (in vivo; Thyroid): 16.7 %ID/g
tissue uptake at 0.5 h (in vivo; Thyroid): 18.5 %ID/g
tissue uptake at 1 h (in vivo; Thyroid): 15.8 %ID/g
tissue uptake at 2 h (in vivo; Thyroid): 17.9 %ID/g
tissue uptake at 4 h (in vivo; Thyroid): 22.9 %ID/g
tissue uptake at 8 h (in vivo; Thyroid): 27.8 %ID/g
Compound: CC(C)(CCCCCCCCCCCCc1ccc(I)cc1)CC(=O)O [DMIPP, 15-(p-iodophenyl)-3,3-dimethylpentadecanoic acid]
myocardial retention, effect of dimethyl branching into the IPP molecule [4]: substantial increase in the myocardial retention
radioiodine in the blood, effect of dimethyl branching into the IPP molecule [4]: dramatic decrease of radioiodine in the blood
retention and heart:blood ratios (triple label) ([1]; in comparison to BMIPP and IPP): greater retention and higher heart:blood ratios
myocardial retention [5]: essentially irreversible myocardial retention
